# According to EPA's ToxValDB 9.5:
# Where “and” joins values, the source holds several entries; their conditions need not be identical. Equal entries are not always repeated.
# Assays:
# [1] = tested on: Mus musculus
# [2] = tested on: Rattus norvegicus; conditions: for LD50 / LC50: acute
# [3] = tested on: Rattus norvegicus; conditions: oral
# [4] = tested on: Rattus norvegicus; conditions: for LOEL / NOEL: Hershberger, gavage
# [5] = tested on: Rattus norvegicus; conditions: subchronic, oral
# [6] = chronic, duration: 14 weeks, inhalation, B6C3F1
# [7] = uterotrophic, duration: 3 days, injection, subcutaneous, Active
# [8] = uterotrophic, duration: 36 days, injection, subcutaneous, Active
# [9] = duration: 10 days, oral, Sprague-Dawley, active + Antiandrogenic + anti-androgenic
# [10] = uterotrophic, duration: 3 days, oral, Active
# [11] = duration: 10 days, oral, Wistar, active + Negative + Antiandrogenic + anti-androgenic
# [12] = duration: 7 days, oral, Sprague-Dawley, active + Antiandrogenic + anti-androgenic
# [13] = duration: 10 days, oral, Sprague-Dawley, active + Negative + Antiandrogenic + anti-androgenic + negative
# [14] = repeat dose other, inhalation, B6C3F1
smiles,measurement,setting,value
"C=CC=C [1,3-Butadiene]",LOAEL,[1]; [6],5530 mg/m3
same,NOAEL,[1]; [6],2770 mg/m3
same,NOAEL,"[1]; reproduction developmental, duration: 5 days, inhalation, M, B6C3F1",442 mg/m3
same,NOAEL,"[1]; reproduction developmental, duration: 10 days, inhalation, CD1, generation: F1",88.5 mg/m3
same,LOAEL,"[2]; repeat dose other, inhalation, Sprague-Dawley",> 17700 mg/m3 and 17700 mg/m3
same,NOAEL,"[2]; reproduction developmental, duration: 10 days, inhalation, Sprague-Dawley, generation: F1",2210 mg/m3
same,LOAEL,"[2]; reproduction developmental, inhalation, Sprague-Dawley",3320 mg/m3
same,NOAEL,"[2]; reproduction developmental, inhalation, Sprague-Dawley, generation: F0",664 mg/m3
[Sn] [Tin],NOAEL,"[3]; subchronic, duration: 13 weeks, diet, M/F, Wistar, hematological",32 mg/kg-day
C[C@]12CC[C@H](O)CC1=CC[C@@H]1[C@@H]2CC[C@]2(C)C(=O)CC[C@@H]12 [Dehydroepiandrosterone],LEL,[4]; [7],6 mg
same,LEL (mg/100 g BW),[4]; [7],0.6
same,LEL,"[4]; uterotrophic, duration: 21 days, Active",1 mg/day
same,LEL,"[4]; uterotrophic, duration: 28 days, oral, diet, Active",2000 mg/kg-day
same,LEL,[4]; [8],30 mg/kg-day
CCCCC(CC)COC(=O)c1ccccc1C(=O)O (stereo not given) [MEHP],LOEL,[4]; [9],50 mg/kg-day
same,NOEL,[4]; [9],10 mg/kg-day
C[C@H]1CCCC(=O)CCCCCc2cc(O)cc(O)c2C(=O)O1 [Zearalanone],LEL,[4]; [10],0.18 mg/day
[Cl-].[Cl-].[Co+2] [Cobalt chloride],NOAEL,"[1]; developmental, duration: 5 days, oral, gavage, ICR",180 mg/kg-day
same,LOAEL,"[2]; chronic, duration: 150 days, oral, gavage",4 mg/kg-day
CC(=O)S[C@@H]1CC2=CC(=O)CC[C@]2(C)[C@H]2CC[C@@]3(C)[C@@H](CC[C@@]34CCC(=O)O4)[C@H]12 [Spironolactone],LOEL,[4]; [11],40 mg/kg-day
same,NOEL,[4]; [11],8 mg/kg-day
"O=C1CCC(=O)N1c1cc(Cl)cc(Cl)c1 [N-(3,5-Dichlorophenyl)succinimide]",LOEL,[4]; [12],100 mg/kg-day
same,NOEL,[4]; [12],50 mg/kg-day
NS(=O)(=O)C(F)(F)C(F)(F)C(F)(F)C(F)(F)C(F)(F)C(F)(F)C(F)(F)C(F)(F)F [Perfluorooctanesulfonamide],NOAEL,"[3]; acute, duration: 1 days, gavage, M, Sprague-Dawley, Hepatic: No alterations in liver weight",5 mg/kg-day
C[C@H]1CCC[C@H](O)CCC/C=C/c2cc(O)cc(O)c2C(=O)O1 [alpha-Zearalenol],LEL,[4]; [10],0.01 mg/day
"N#Cc1c(Cl)cccc1Cl [2,6-Dichlorobenzonitrile]",LOEL,[4]; [13],150 mg/kg-day
same,NOEL,[4]; [13],60 mg/kg-day
COc1ccc(C(=O)c2ccccc2)c(O)c1 [2-Hydroxy-4-methoxybenzophenone],NOEL,"[5]; diet, F, Fischer 344, Body Weight Changes: decrease + Food Consumption: decrease + Hematology: Hgb decrease, Plt increase + Blood Chemistry: gamma-GTP increase, …",< 196 mg/kg-day
same,NOEL,"[5]; diet, M/F, Fischer 344, Body Weight Changes: decrease + Food Consumption: decrease + Hematology: Hgb decrease, Plt increase + Blood Chemistry: gamma-GTP increase, …",< 300 mg/kg-day
same,LEL,"[4]; uterotrophic, duration: 4 days, oral, diet, Active",1520 mg/kg-day
"CCCCCCCCCCCCOC(=O)CCSCCC(=O)OCCCCCCCCCCCC [Propanoic acid, 3,3'-thiobis-, didodecyl ester]",LD50,"[1]; acute, oral",> 2000 mg/kg
same,LD50,[2]; oral,> 2500 mg/kg
same,NOAEL,"[2]; reproduction developmental, duration: 13 weeks, oral, gavage, Sprague-Dawley",350 mg/kg-day
same,NOAEL,"[2]; subchronic, duration: 13 weeks, oral, gavage, Sprague-Dawley",350 mg/kg-day
CCCCCCCCCCCCCCCCCCOC(=O)CCSCCC(=O)OCCCCCCCCCCCCCCCCCC [Distearyl thiodipropionate],LD50,"[1]; acute, injection, Intraperitoneal",> 2000 mg/kg
same,LD50,"[1]; acute, oral",> 2000 mg/kg
same,LD50,[2]; dermal,> 2000 mg/kg
same,LD50,[2]; oral,> 5000 mg/kg
C#C[C@@]1(OC(=O)CC)C[C@@H]2CC[C@@H]3[C@H](CC[C@@]4(C)[C@H]3CC[C@]4(C#C)OC(=O)CC)[C@@]2(C)C1 [Anordrin],LEL,[4]; [10],0.0025 mg/day
Cc1ccc2[nH]c3cc4c(=O)c5cc(C)ccc5[nH]c4cc3c(=O)c2c1 [C.I. Pigment Red 122],LD50,"[1]; acute, oral, gavage",≥ 5000 mg/kg
same,LD50,"[2]; oral, gavage",≥ 5000 mg/kg
same,NOEL,"[5]; gavage, Sprague-Dawley",1000 mg/kg-day
C=CC(=C)C [Isoprene],LC50,"[1]; acute, inhalation",180000 mg/m3 and 157000 mg/m3
same,NOAEL,"[1]; developmental, duration: 6 days, inhalation, CD-1/Swiss, generation: F1",19500 mg/m3
same,LOAEL,[1]; [14],195 mg/m3
same,NOAEL,[1]; [14],27.9 mg/m3
same,NOAEL,"[1]; reproduction developmental, inhalation, B6C3F1",195 mg/m3
same,LC50,[2]; inhalation,180000 mg/m3 and 157000 mg/m3
same,NOAEL,"[2]; developmental, duration: 6 days, inhalation, Sprague-Dawley, generation: F1",19500 mg/m3
same,NOAEL,"[2]; reproduction developmental, inhalation, Fischer 344",195 mg/m3
"C[C@]12CCC(=O)C=C1CC[C@@H]1[C@@H]2CC[C@]2(C)C(=O)CC[C@@H]12 [4-Androstene-3,17-dione]",LEL,[4]; [7],5 mg/day
same,LEL,"[4]; uterotrophic, duration: 7 days, injection, subcutaneous, Active",5 mg/kg-day
same,LEL,"[4]; uterotrophic, duration: 14 days, injection, subcutaneous, Active",2 mg/day
same,LEL,[4]; [8],1 mg/kg-day
"CCN(O)CC [N,N-Diethylhydroxylamine]",LD50,"[1]; acute, oral",2150 mg/kg
same,LC50,"[2]; inhalation, Sprague-Dawley",11400 mg/m3
same,LD50,"[2]; oral, gavage, WBS/W",2190 mg/kg
same,NOAEL,"[2]; reproduction developmental, oral, gavage, F, Sprague-Dawley",250 mg/kg-day
same,NOAEL,"[2]; short-term, duration: 5 days, inhalation, Sprague-Dawley",547 mg/m3
same,NOAEL,"[2]; short-term, duration: 28 days, inhalation, Sprague-Dawley",547 mg/m3
